Two compounds from patent US20180325930A1, “Use of Oligosaccharide Compounds for Activating Angiogenesis” (Urgo Recherche Innovation et Developpement, priority 2015, published 2018) can be followed below.

The subject of this assay is chick embryo chorioallantoic membranes (CAM). The assay is described as follows: chicken ex ovo chorioallantoic membrane (CAM) angiogenesis model. It counts as in vivo. The text has this:
This consists of a vascularised membrane found in bird or reptile eggs. In mammals, this structure forms the placenta. The model for the study will be a chicken ex OVO (without the shell) CAM model.
Fertilised chicken eggs were used.
For the study, VEGF-A was used as the positive control.
Potassium sucrose octasulphate salt (KSOS) is presented in the form of a solution at different concentrations, buffered with PBS.
A PBS buffer solution was used as a negative control.
On receipt, the eggs are stored at 13° C. to stop the development thereof until the time of the study. The eggs are then placed in incubation in a hatcher at 37° C. to enable the development of the embryo.
At 3 days, the eggs are broken unto a weighing cup so as to remove the shell, thereby rendering the embryo and all the structures accessible for future treatment. The ex ovo embryos are then placed back in the hatcher where they will continue the in vitro development thereof.
The embryos will be treated in the vehicle (PBS only), VEGF or different concentration of KSOS.
The treatment area is delimited by a silicone ring 1 cm in diameter and 0.2 in thickness. The treatment volume is 25 μl. The treated embryos are placed back in the hatcher for 48 hours.
After 48 hours of incubation, 10% skimmed milk is injected between the CAM and the yolk to separate the 2 vascularisations and increase the contrast for an optimal photographic shot. A photo is taken of the treatment area with a NIKON AZ 1 OO, NIS-element capture software, with 0.5×4 magnification.
On the basis of these photos, a number of parameters were determined using the image analysis software: • a) the total tube length (sum of the lengths of each vessel in the image), • b) the number of segments (total number of vessels connected to a branch point), • c) the number of branch points (total number of junctions connected to a segment). • b and c are representative of the formation of new characteristic vessels of angiogenesis.

Regarding `O=S(=O)([O-])OCC1OC(OC2(COS(=O)(=O)[O-])OC(COS(=O)(=O)[O-])C(OS(=O)(=O)[O-])C2OS(=O)(=O)[O-])C(OS(=O)(=O)[O-])C(OS(=O)(=O)[O-])C1OS(=O)(=O)[O-].[K+].[K+].[K+].[K+].[K+].[K+].[K+].[K+]` (stereo not drawn) [KSOS, potassium sucrose octasulphate salt], where the note is “30 mg/mL, 48 hours”, the “angiogenesis activation (significance with respect to VEGF-A or 100 mg/mL KSOS)” value was “not considered to be significant” and the vascular network visible entry is on record as “poorly developed vascular network”. Where the note is “50 mg/mL, 48 hours”, the “angiogenesis activation (significance with respect to VEGF-A or 100 mg/mL KSOS)” value is “not considered to be significant” and the vascular network visible result is on record as “poorly developed vascular network”. For the setting “100 mg/mL, 48 hours”, the “3 parameters measured (total tube length, number of segments, number of branch points), image analysis vs PBS” value is reported as “significant increase”; the “angiogenesis activation compared with positive control VEGF-A” value was “angiogenesis activation equivalent to that observed with VEGF-A”; the “vascular network observed on photos” value is given as “well-developed vascular network”. Further, the “CAM vascularisation at the treatment area (overall, according to the dose)” value (3-100 mg/mL, 48 hours) was “increase in CAM vascularisation”. Besides, the “vascular change with respect to the negative control (PBS only), photos” value (from 30 mg/mL, 48 hours) is “slight vascular change”. For the same compound, the “concentration from which angiogenesis activation is considered significant” value (inferred from results at 50 and 100 mg/mL, 70 mg/mL not tested) is given as at least 70 mg/mL.
For VEGF [reference compound], the “neovascularisation of the CAM (photos of treatment area)” value (VEGF 0.5 μg (20 μg/mL), 25 μl, 48 hours) is given as “anarchic neovascularisation”. Also, the “3 parameters measured (total tube length, number of segments, number of branch points), image analysis vs PBS” value (VEGF 0.5 μg (20 μg/mL), 48 hours) is reported as “significant increase”.
